According to ChEMBL document CHEMBL1201862, “PubChem BioAssay data set” (2004):
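Assay format: 96-well plates, 48-hour exposure. GI50 is the concentration that inhibits growth by half.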 Calls of active or inactive are those of the source. No stated cut-off is given here; in the data, active = GI50 up to about 1.1 µM and inactive = higher.

What was measured:
Experiment in all cases: NCI anticancer screen, dose series, 48 h
[1] = system: NCI-H460
[2] = system: A549
[3] = system: LOX IMVI
[4] = system: DU-145
[5] = system: U-251
[6] = system: HOP-62
[7] = system: IGROV-1
[8] = system: ACHN
[9] = system: MDA-MB-231
[10] = system: BT-549
[11] = system: SF-268
[12] = system: NCI/ADR-RES
[13] = system: EKVX
[14] = system: NCI-H522
[15] = system: CAKI-1
[16] = system: OVCAR-4
[17] = system: SR
[18] = system: SW-620
[19] = system: RPMI-8226
[20] = system: T47D

Compound | GI50 [1] | GI50 [2] | GI50 [3] | GI50 [4] | GI50 [5] | GI50 [6] | GI50 [7] | GI50 [8] | GI50 [9] | GI50 [10] | GI50 [11] | GI50 [12] | GI50 [13] | GI50 [14] | GI50 [15] | GI50 [16] | GI50 [17] | GI50 [18] | GI50 [19] | GI50 [20]
COc1cc(C23OCC(Cc4cc5c(cc42)OCO5)C3CO)cc(OC)c1OC (centres undefined) | 3.23 µM (inactive) | 3.48 µM (inactive) | 1.97 µM (inactive) | 2.64 µM (inactive) | 2.94 µM (inactive) | 4.34 µM (inactive) | 2.44 µM (inactive) | 7.13 µM (inactive) | 6.4 µM (inactive) | 56.6 µM (inactive) | 4.82 µM (inactive) | 1.84 µM (inactive) | > 100 µM (inactive) | 2.22 µM (inactive) | 5.79 µM (inactive) | 41.1 µM (inactive) | 0.187 µM (active) | 3.11 µM (inactive) | – | –
CCN(C(=O)N[C@@H](Cc1ccccc1)C(=O)N[C@@H](CC(C)C)C(=O)NC)c1ccccc1 | > 100 µM (inactive) | > 100 µM (inactive) | > 100 µM (inactive) | > 100 µM (inactive) | > 100 µM (inactive) | > 100 µM (inactive) | > 100 µM (inactive) | > 100 µM (inactive) | > 100 µM (inactive) | > 100 µM (inactive) | – | > 100 µM (inactive) | > 100 µM (inactive) | > 100 µM (inactive) | > 100 µM (inactive) | > 100 µM (inactive) | – | > 100 µM (inactive) | 77.1 µM (inactive) | > 100 µM (inactive)
O=P(O)(O)C(N=C(Nc1ccccc1)Nc1ccccc1)P(=O)(O)O | > 100 µM (inactive) | > 100 µM (inactive) | > 100 µM (inactive) | > 100 µM (inactive) | – | > 100 µM (inactive) | > 100 µM (inactive) | > 100 µM (inactive) | > 100 µM (inactive) | > 100 µM (inactive) | > 100 µM (inactive) | > 100 µM (inactive) | > 100 µM (inactive) | > 100 µM (inactive) | > 100 µM (inactive) | – | – | – | – | –
CCCCSC1=N/C(=C\c2ccc(N(C)C)cc2)C(Cl)=N1 | > 100 µM (inactive) | > 100 µM (inactive) | > 100 µM (inactive) | > 100 µM (inactive) | > 100 µM (inactive) | > 100 µM (inactive) | > 100 µM (inactive) | > 100 µM (inactive) | > 100 µM (inactive) | > 100 µM (inactive) | > 100 µM (inactive) | > 100 µM (inactive) | 89.5 µM (inactive) | > 100 µM (inactive) | > 100 µM (inactive) | > 100 µM (inactive) | – | > 100 µM (inactive) | > 100 µM (inactive) | > 100 µM (inactive)
